What was measured:
Human GPR35 [1] = molecular target: Human GPR35 (Homo sapiens, UniProt Q9HC97); experiment: Beta-Arrestin Assay (Tango U2OS cells, LiveBLAzer-FRET B/G); format: cell-based; conditions: Human GPR35 expressing Tango U2OS cells, 5 hours treatment
Procedure: Human GPR35 expressing Tango U2OS cells were plated in 384-well format in clear bottom plates at a cell density of 10,000 cells/well and allowed to grow overnight. The next day, cells were treated with serially diluted test compounds for 5 hours. LiveBLAzer-FRET B/G (CCF4-AM) detection reagents were then added and cells were allowed to incubate for 2 hours before reading plates on a BioTek Cytation 5 plate reader. Zaprinast was used as a positive control for dose-response curves. In order to determine EC50 values, data were fit to a four-parameter dose-response curve.

Human GPR35 [2] = molecular target: Human GPR35 (Homo sapiens, UniProt Q9HC97, S294R); experiment: Alternative Beta-Arrestin Assay (JumpIn 294R Tango U2OS cells, LiveBLAzer-FRET B/G); format: cell-based; conditions: for EC50: Human GPR35 expressing JumpIn 294R Tango U2OS cells, 5 hours treatment
In short: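 Beta-arrestin recruitment measured as FRET ratio change using CCF4-AM loading for 2 h, following 5-hour compound treatment of GPR35 (S294R) JumpIn Tango U2OS cells. Zaprinast served as positive control; EC50 values from four-parameter dose-response fits.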

Human GPR35 (Homo sapiens, UniProt Q9HC97), sequence (Q9HC97 whole entry): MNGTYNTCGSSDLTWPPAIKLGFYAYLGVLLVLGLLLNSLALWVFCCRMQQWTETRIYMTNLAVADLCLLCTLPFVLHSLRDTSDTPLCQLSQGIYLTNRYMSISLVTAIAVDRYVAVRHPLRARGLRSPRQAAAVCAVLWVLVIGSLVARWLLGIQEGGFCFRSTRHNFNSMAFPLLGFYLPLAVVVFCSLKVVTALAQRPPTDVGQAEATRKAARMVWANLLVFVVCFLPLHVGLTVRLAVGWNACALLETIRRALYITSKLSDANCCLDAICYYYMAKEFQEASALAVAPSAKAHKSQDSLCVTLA
Human GPR35 (Homo sapiens, UniProt Q9HC97, S294R), sequence (Q9HC97 whole entry S294R): as the sequence (Q9HC97 whole entry) above, with S294R counted along it

SMILES | EC50 (Human GPR35 [1]) | EC50 (Human GPR35 [2]) | % inhibition at 50 μM (Human GPR35 [2]; at 50 μM, Table 2)
CCOc1cc(C#N)ccc1-c1nc2[nH]nnc2c(=O)[nH]1 [Compound 142, 3-ethoxy-4-(7-oxo-6,7-dihydro-3H-[1,2,3]triazolo[4,5-d]pyrimidin-5-yl)benzonitrile] | ≤ 10 µM | ≤ 10 µM | 
CCOc1cc(N2CCC[C@@H]2C(=O)O)ccc1-c1nc2[nH]nnc2c(=O)[nH]1 [Compound 163, (3-ethoxy-4-(7-oxo-6,7-dihydro-3H-[1,2,3]triazolo[4,5-d]pyrimidin-5-yl)phenyl)-D-proline] | ≤ 10 µM | ≤ 10 µM | 
CCOc1cc(C(=O)N2CCCCC2C(=O)O)ccc1-c1nc2[nH]nnc2c(=O)[nH]1 (stereo not drawn) [Compound 171, 1-(3-ethoxy-4-(7-oxo-6,7-dihydro-3H-[1,2,3]triazolo[4,5-d]pyrimidin-5-yl)benzoyl)piperidine-2-carboxylic acid] | > 10 µM | 10 to 50 µM | 
O=c1[nH]c(-c2ccc(CO)cc2)nc2[nH]nnc12 [Compound 148, 5-(4-(hydroxymethyl)phenyl)-3,6-dihydro-7H-[1,2,3]triazolo[4,5-d]pyrimidin-7-one] | > 10 µM | > 50 µM | 
CCOc1cc(N2CC[C@@H](C(=O)O)C2)ccc1-c1nc2[nH]nnc2c(=O)[nH]1 [Compound 167, (R)-1-(3-ethoxy-4-(7-oxo-6,7-dihydro-3H-[1,2,3]triazolo[4,5-d]pyrimidin-5-yl)phenyl)pyrrolidine-3-carboxylic acid] | ≤ 10 µM | ≤ 10 µM | 
O=c1[nH]c(-c2ccc(-c3ccccc3)cc2)nc2[nH]nnc12 [Compound 129, 5-([1,1′-biphenyl]-4-yl)-3,6-dihydro-7H-[1,2,3]triazolo[4,5-d]pyrimidin-7-one] | ≤ 10 µM | 10 to 50 µM | 
CCOc1cc(C(=O)NS(=O)(=O)N(C)C)ccc1-c1nc2[nH]nnc2c(=O)[nH]1 [Compound 152, N-(N,N-dimethylsulfamoyl)-3-ethoxy-4-(7-oxo-6,7-dihydro-3H-[1,2,3]triazolo[4,5-d]pyrimidin-5-yl)benzamide] | ≤ 10 µM | ≤ 10 µM | 
CCOc1cc(N2CCCC2=O)ccc1-c1nc2[nH]nnc2c(=O)[nH]1 [Compound 165, 5-(2-ethoxy-4-(2-oxopyrrolidin-1-yl)phenyl)-3,6-dihydro-7H-[1,2,3]triazolo[4,5-d]pyrimidin-7-one] | ≤ 10 µM |  | 66% inhibition at
CCOc1cc(NCCC(=O)O)ccc1-c1nc2[nH]nnc2c(=O)[nH]1 [Compound 168, 3-((3-ethoxy-4-(7-oxo-6,7-dihydro-3H-[1,2,3]triazolo[4,5-d]pyrimidin-5-yl)phenyl)amino)propanoic acid] | ≤ 10 µM | ≤ 10 µM | 
O=C(O)Cc1ccc(-c2nc3[nH]nnc3c(=O)[nH]2)cc1 [Compound 149, 2-(4-(7-oxo-6,7-dihydro-3H-[1,2,3]triazolo[4,5-d]pyrimidin-5-yl)phenyl)acetic acid] | ≤ 10 µM | ≤ 10 µM | 
CCOC(=O)Cn1cc(-c2ccc(-c3nc4[nH]nnc4c(=O)[nH]3)c(OCC)c2)cn1 [Compound 126, Ethyl 2-(4-(3-ethoxy-4-(7-oxo-6,7-dihydro-3H-[1,2,3]triazolo[4,5-d]pyrimidin-5-yl)phenyl)-1H-pyrazol-1-yl)acetate] | ≤ 10 µM | ≤ 10 µM | 
CCOc1cc(C(=O)N2CC[C@H](C(=O)O)C2)ccc1-c1nc2[nH]nnc2c(=O)[nH]1 [Compound 160, (S)-1-(3-ethoxy-4-(7-oxo-6,7-dihydro-3H-[1,2,3]triazolo[4,5-d]pyrimidin-5-yl)benzoyl)pyrrolidine-3-carboxylic acid] | ≤ 10 µM | ≤ 10 µM | 
CCOc1cc(CO)ccc1-c1nc2[nH]nnc2c(=O)[nH]1 [Compound 145, 5-(2-ethoxy-4-(hydroxymethyl)phenyl)-3,6-dihydro-7H-[1,2,3]triazolo[4,5-d]pyrimidin-7-one] | ≤ 10 µM | ≤ 10 µM | 

The next lines start with the values.

EC50 (Human GPR35 [1]) | EC50 (Human GPR35 [2]) | % inhibition at 50 μM (Human GPR35 [2]; at 50 μM, Table 2) | SMILES
≤ 10 µM | ≤ 10 µM |  | CCOc1cc(-c2cncc(C(=O)O)c2)ccc1-c1nc2[nH]nnc2c(=O)[nH]1 [Compound 113, 5-(3-Ethoxy-4-(7-oxo-6,7-dihydro-3H-[1,2,3]triazolo[4,5-d]pyrimidin-5-yl)phenyl)nicotinic acid]
≤ 10 µM | ≤ 10 µM |  | CCOc1cc(-c2cccc(C(N)=O)c2)ccc1-c1nc2[nH]nnc2c(=O)[nH]1 [Compound 156, 3′-ethoxy-4′-(7-oxo-6,7-dihydro-3H-[1,2,3]triazolo[4,5-d]pyrimidin-5-yl)-[1,1′-biphenyl]-3-carboxamide]
≤ 10 µM | ≤ 10 µM |  | CCOc1cc(-c2cc(N)cc(C(=O)OC)c2)ccc1-c1nc2[nH]nnc2c(=O)[nH]1 [Compound 122, Methyl 5-amino-3′-ethoxy-4′-(7-oxo-6,7-dihydro-3H-[1,2,3]triazolo[4,5-d]pyrimidin-5-yl)-[1,1′-biphenyl]-3-carboxylate]
≤ 10 µM | ≤ 10 µM |  | CCOc1cc(-c2cccc(C(=O)OC)c2)ccc1-c1nc2[nH]nnc2c(=O)[nH]1 [Compound 107, Methyl 3′-ethoxy-4′-(7-oxo-6,7-dihydro-3H-[1,2,3]triazolo[4,5-d]pyrimidin-5-yl)-[1,1′-biphenyl]-3-carboxylate]
≤ 10 µM | ≤ 10 µM |  | CCCOc1cc(-c2cccc(C(=O)O)c2)ccc1-c1nc2[nH]nnc2c(=O)[nH]1 [Compound 128, 4′-(7-Oxo-6,7-dihydro-3H-[1,2,3]triazolo[4,5-d]pyrimidin-5-yl)-3′-propoxy-[1,1′-biphenyl]-3-carboxylic acid]
≤ 10 µM | ≤ 10 µM |  | CCOc1cc(-c2ccc(Cl)c(C(=O)O)c2)ccc1-c1nc2[nH]nnc2c(=O)[nH]1 [Compound 180, 4-chloro-3′-ethoxy-4′-(7-oxo-6,7-dihydro-3H-[1,2,3]triazolo[4,5-d]pyrimidin-5-yl)-[1,1′-biphenyl]-3-carboxylic acid]
≤ 10 µM | ≤ 10 µM |  | CCOc1cc(-c2cccc(-c3nnn[nH]3)c2)ccc1-c1nc2[nH]nnc2c(=O)[nH]1 [Compound 153, 5-(3-ethoxy-3′-(1H-tetrazol-5-yl)-[1,1′-biphenyl]-4-yl)-3,6-dihydro-7H-[1,2,3]triazolo[4,5-d]pyrimidin-7-one]
≤ 10 µM | ≤ 10 µM |  | CCOc1cc(-c2cncc(C(=O)OC)c2)ccc1-c1nc2[nH]nnc2c(=O)[nH]1 [Compound 112, Methyl 5-(3-ethoxy-4-(7-oxo-6,7-dihydro-3H-[1,2,3]triazolo[4,5-d]pyrimidin-5-yl)phenyl)nicotinate]
≤ 10 µM | ≤ 10 µM |  | CCOc1cc(-c2c[nH]c(C(=O)O)c2)ccc1-c1nc2[nH]nnc2c(=O)[nH]1 [Compound 178, 4-(3-ethoxy-4-(7-oxo-6,7-dihydro-3H-[1,2,3]triazolo[4,5-d]pyrimidin-5-yl)phenyl)-1H-pyrrole-2-carboxylic acid]
≤ 10 µM | ≤ 10 µM |  | CCOc1cc(-c2ccc(C(=O)O)s2)ccc1-c1nc2[nH]nnc2c(=O)[nH]1 [Compound 117, 5-(3-Ethoxy-4-(7-oxo-6,7-dihydro-3H-[1,2,3]triazolo[4,5-d]pyrimidin-5-yl)phenyl)thiophene-2-carboxylic acid]
≤ 10 µM | ≤ 10 µM |  | CCOc1cc(-c2ccccn2)ccc1-c1nc2[nH]nnc2c(=O)[nH]1 [Compound 105, 5-(2-Ethoxy-4-(pyridin-2-yl)phenyl)-3,6-dihydro-7H-[1,2,3]triazolo[4,5-d]pyrimidin-7-one]

Reference: patent US11053251B2, “GPR35 modulators” (Prometheus Biosciences, Inc., priority 2019, dated 2021)
